Experimental data published in ChEMBL document CHEMBL3400118, “New approaches to the synthesis of sildenafil analogues and their enzyme inhibitory activity” (Bioorg Med Chem, 2015).
pIC50, pKi: −log10 of the molar value.

Tests used:
[1] = target: Carbonic anhydrase 12 (Homo sapiens, UniProt O43570); experiment: Inhibition of human carbonic anhydrase 12 preincubated for 15 mins by CO2 hydration assay
[2] = target: Cyclin-dependent kinase 2/cyclin E1 (Homo sapiens, UniProt P24941); experiment: Inhibition of CDK2/Cyclin E (unknown origin) using histone H1 as substrate by [gamma-33P]ATP assay; format: protein-complex assay
[3] = test system: MCF7; experiment: Cytotoxicity against human MCF7 cells after 72 hrs using Calcein AM by fluorescence assay; format: functional, cell-based; settings: MCF7, 72 h
[4] = target: Carbonic anhydrase 2 (Homo sapiens, UniProt P00918); experiment: Inhibition of human carbonic anhydrase 2 preincubated for 15 mins by CO2 hydration assay
[5] = test system: K562; experiment: Cytotoxicity against human K562 cells after 72 hrs using Calcein AM by fluorescence assay; format: functional, cell-based; settings: K562, 72 h
[6] = target: Carbonic anhydrase 1 (Homo sapiens, UniProt P00915); experiment: Inhibition of human carbonic anhydrase 1 preincubated for 15 mins by CO2 hydration assay
Chain of Carbonic anhydrase 1 (P00915 whole entry): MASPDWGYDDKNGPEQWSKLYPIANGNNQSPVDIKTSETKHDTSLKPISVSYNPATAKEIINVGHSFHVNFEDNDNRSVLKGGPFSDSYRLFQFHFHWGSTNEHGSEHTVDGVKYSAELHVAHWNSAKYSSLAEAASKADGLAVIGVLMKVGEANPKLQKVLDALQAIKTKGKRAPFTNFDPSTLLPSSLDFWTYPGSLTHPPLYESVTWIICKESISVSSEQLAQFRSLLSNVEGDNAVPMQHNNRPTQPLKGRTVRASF

[7] = target: Carbonic anhydrase 9 (Homo sapiens, UniProt Q16790); experiment: Inhibition of human carbonic anhydrase 9 preincubated for 15 mins by CO2 hydration assay
[8] = target: Tyrosine-protein kinase ABL1 (Homo sapiens, UniProt P00519); experiment: Inhibition of Abl (unknown origin) using GGEAIYAAPFKK peptide as substrate by [gamma-33P]ATP assay
Chain of Tyrosine-protein kinase ABL1 (P00519 whole entry): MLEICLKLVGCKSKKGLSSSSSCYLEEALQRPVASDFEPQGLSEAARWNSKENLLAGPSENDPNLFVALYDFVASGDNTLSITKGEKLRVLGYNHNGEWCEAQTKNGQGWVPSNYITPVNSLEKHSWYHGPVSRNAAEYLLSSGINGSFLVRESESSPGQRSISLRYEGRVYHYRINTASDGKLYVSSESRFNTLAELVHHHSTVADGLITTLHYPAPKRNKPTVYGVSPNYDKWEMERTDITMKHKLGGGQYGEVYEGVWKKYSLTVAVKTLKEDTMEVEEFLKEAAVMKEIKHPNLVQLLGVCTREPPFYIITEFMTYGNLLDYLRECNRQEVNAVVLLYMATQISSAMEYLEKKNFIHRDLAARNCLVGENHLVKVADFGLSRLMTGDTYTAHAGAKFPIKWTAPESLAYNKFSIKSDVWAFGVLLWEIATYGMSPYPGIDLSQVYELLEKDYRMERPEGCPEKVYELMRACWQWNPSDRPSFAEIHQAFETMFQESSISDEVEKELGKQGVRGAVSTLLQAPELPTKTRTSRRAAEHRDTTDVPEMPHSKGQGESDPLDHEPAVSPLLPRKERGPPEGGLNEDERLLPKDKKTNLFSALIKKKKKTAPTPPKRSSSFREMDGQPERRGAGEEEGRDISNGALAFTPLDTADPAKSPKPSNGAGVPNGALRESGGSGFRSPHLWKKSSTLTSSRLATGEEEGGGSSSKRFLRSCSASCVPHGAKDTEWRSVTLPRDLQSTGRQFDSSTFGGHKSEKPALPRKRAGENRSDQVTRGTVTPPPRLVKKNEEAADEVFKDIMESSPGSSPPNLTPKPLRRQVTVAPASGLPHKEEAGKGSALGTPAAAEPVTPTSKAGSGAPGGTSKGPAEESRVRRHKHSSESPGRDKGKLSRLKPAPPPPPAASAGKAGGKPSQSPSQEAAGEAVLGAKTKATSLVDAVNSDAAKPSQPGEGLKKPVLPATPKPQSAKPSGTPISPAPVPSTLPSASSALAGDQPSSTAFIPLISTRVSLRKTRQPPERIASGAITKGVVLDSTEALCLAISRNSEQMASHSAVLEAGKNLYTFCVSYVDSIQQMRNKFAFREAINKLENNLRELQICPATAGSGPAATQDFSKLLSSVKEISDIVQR

Chain of Carbonic anhydrase 12 (O43570 whole entry): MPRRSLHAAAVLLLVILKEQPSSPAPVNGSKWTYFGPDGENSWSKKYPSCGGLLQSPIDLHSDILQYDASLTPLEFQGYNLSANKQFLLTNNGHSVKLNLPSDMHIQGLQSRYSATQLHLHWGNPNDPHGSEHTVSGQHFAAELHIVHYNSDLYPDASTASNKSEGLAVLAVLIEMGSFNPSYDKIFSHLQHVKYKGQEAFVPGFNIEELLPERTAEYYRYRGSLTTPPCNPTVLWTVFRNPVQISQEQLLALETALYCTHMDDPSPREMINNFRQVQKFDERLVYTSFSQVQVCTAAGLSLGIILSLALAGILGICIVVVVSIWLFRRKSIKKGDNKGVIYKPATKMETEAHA

Row | SMILES | pKi [1] | pIC50 [2] | pIC50 [3] | pKi [4] | pIC50 [5] | pKi [6] | pKi [7] | pIC50 [8]
1 | CCOc1ccc(S(=O)(=O)N2CCN(C)CC2)cc1-c1nnc2c(n1)c(C)nn2C | 6.20 | < 4.30 | < 4.60 | < 5.00 | < 4.60 | < 5.00 | 7.42 | < 4.30
2 | CCOc1ccc(S(=O)(=O)NCCN)cc1-c1nnc2c(n1)c(C)nn2C | 7.24 | < 4.30 | < 4.60 | < 5.00 | < 4.60 | < 5.00 | 7.48 | < 4.30
3 | CCOc1ccc(S(=O)(=O)N(CC)CC)cc1-c1nnc2c(n1)c(C)nn2C | 6.55 | < 4.30 | < 4.60 | < 5.00 | < 4.60 | < 5.00 | 7.37 | < 4.30
4 | CCCc1nn(C)c2nnc(-c3cc(S(=O)(=O)N4CCNCC4)ccc3OCC)nc12 | 8.42 |  |  | < 5.00 |  | < 5.00 | 7.41 | 
5 | CCOc1ccc(S(N)(=O)=O)cc1-c1nnc2c(n1)c(C)nn2C | 8.26 |  |  | 6.37 |  | 5.17 | 7.50 | 
6 | CCOc1ccc(S(=O)(=O)NC(C)(C)CO)cc1-c1nnc2c(n1)c(C)nn2C | 6.22 | < 4.00 | < 4.00 | < 5.00 | < 4.00 | < 5.00 | 7.50 | < 4.00
7 | CCOc1ccc(S(=O)(=O)N2CCCNCC2)cc1-c1nnc2c(n1)c(C)nn2C | 6.18 | 4.35 | < 4.60 | < 5.00 | < 4.60 | < 5.00 | 7.51 | 5.23
8 | CCOc1ccc(S(=O)(=O)NCCO)cc1-c1nnc2c(n1)c(C)nn2C | 8.14 | < 4.30 | < 4.60 | < 5.00 | < 4.60 | < 5.00 | 7.42 | < 4.30
9 | CCOc1ccc(S(=O)(=O)N2CCNCC2)cc1-c1nnc2c(n1)c(C)nn2C | 6.21 | < 4.30 | < 4.60 | < 5.00 | < 4.60 | < 5.00 | 7.40 | < 4.30
10 | CCCc1nn(C)c2nnc(-c3cc(S(=O)(=O)N4CCN(C)CC4)ccc3OCC)nc12 | 6.20 | < 4.60 | < 4.60 | < 5.00 | < 4.60 | < 5.00 | 7.81 | < 4.30
11 | CCOc1ccc(S(=O)(=O)N2CCCC2)cc1-c1nnc2c(n1)c(C)nn2C | 6.22 | < 4.30 | < 4.60 | < 5.00 | < 4.60 | < 5.00 | 7.39 | < 4.30
12 | CCOc1ccc(S(=O)(=O)N2CCCCC2)cc1-c1nnc2c(n1)c(C)nn2C | 6.24 | < 4.60 | < 4.60 | < 5.00 | < 4.60 | < 5.00 | 7.55 | < 4.60
13 | Cc1ccc(NC(=O)c2ccc(CN3CCN(C)CC3)cc2)cc1Nc1nccc(-c2cccnc2)n1 [IMATINIB] |  |  | < 5.00 |  |  |  |  | 
14 | CCOc1ccc(S(=O)(=O)NC(C)(CO)CO)cc1-c1nnc2c(n1)c(C)nn2C | 7.39 | < 4.00 | < 4.00 | < 5.00 | < 4.00 | < 5.00 | 7.49 | < 4.00
15 | CCOc1ccc(S(=O)(=O)NCCN2CCOCC2)cc1-c1nnc2c(n1)c(C)nn2C | 7.23 | < 4.30 | < 4.60 | < 5.00 | < 4.60 | < 5.00 | 7.40 | < 4.30
16 | CCOc1ccc(S(=O)(=O)N2CCOCC2)cc1-c1nnc2c(n1)c(C)nn2C | 7.52 | < 4.30 | < 4.60 | < 5.00 | < 4.60 | < 5.00 | 7.61 | < 4.30
